Measurements taken from patent US9486472B2, “Methods for modulating neuronal responses” (UNIVERSITY OF BRITISH COLUMBIA CANADA, priority 2003, dated 2016).
No end group written: not given here.

Legend:
AMPAR = test: Quantification of AMPAR endocytosis in response to NMDA treatment (cellular ELISA), cortical neurons; assay type: cell-based, Wistar rat; settings: 50 μM NMDA + 10 μM glycine 30 min; peptide 1 μM, 60 min pretreatment; control 69%
Protocol: The cortex was dissected from 18 days in utero Wistar embryos and was treated with trypsin-EDTA for 15 min at 37° C. The cells were then washed 3 times and triturated to a single cell suspension. The neurons with glia were then seeded at a density of ˜2.5×10^5 neurons/well in 12 well tissue culture plates coated with poly-D lysine. The cells were then cultured for 24-48 h in plating media (Gibco Neurobasal™, 1% FBS, 2% B-27 supplement, 0.5 mM […], and 25 μM glutamic acid), after which the cells were treated with Neurobasal™ maintenance media (NMM: Gibco Neurobasal™ Media+0.5 mM […], 2% B-27 supplement) with 10 μM 5-Fluoro-2′-deoxyuridine (FDU) to enrich the culture for neurons (−85%). After 24 h-48 h culture in FDU, the cells were maintained on NMM changed every 4 days.
Using cellular ELISA, the amount of intracellular versus extracellular AMPAR expression was measured allowing quantification of AMPAR endocytosis in response to NMDA insult. DIV 12-13 neurons were washed once with room temperature ECS. […] The absorbance at 492 nm was read using a μQuant plate reader (Bio-Tek Instruments Inc.). The data were analyzed by first subtracting the absorbance values for the no-primary controls from the other samples. The percentage AMPAR surface expression was then expressed as a ratio of the non-permeabilized samples to the permeabilized samples. […]

rats [1] = test: Behavioural sensitization to d-amphetamine (stereotypy scores); assay type: in vivo, rat; settings: one hour intravenous pre-treatment
Protocol: To induces behaviour sensitization to addictive drugs that lead to substance abuse, four separate groups of adult rats were given repetitive injections of damphetamine (2 mg/kg, intraperitoneally (IP)) or saline, every other day for a total of 10 injections. On days 1, 5 and 10 of the injection regimen, the rats were placed in 2-level locomotor boxes for 30 min before the amphetamine injection to habituate to the boxes, and for an additional 2 hours following the injection, and stereotypy scores (drug-induced behaviours) were assessed at 1 minute intervals every 10 minutes for the duration of the 2 hour session. After the 10th injection of d-amphetamine, the rats were given 21 days off, and chronically indwelling catheters were implanted into the jugular vein under anaesthesia.
On day 21, the rats were pretreated with 1.5 nM/grTat-GluR2-3Y, or Tat-GluR2-3A or saline by either IV injection, or intracranial microinjection into the nucleus accumbens (Nac), and returned to their home cages for 60 min. The rats were then placed in the locomotor boxes (observation chambers) for 30 min and then treated with a challenge dose of d-amphetamine (2 mg/kg, IP). Stereotypy scores were then assessed as described (FIG. 12A), Points represent mean stereotypy scores (±S.E.M) for groups of rats over the 2 hour test session. […]

rats [2] = settings: IV 60 min prior to test session; versus saline
Protocol: A. Rats maintained on a restricted feeding schedule were trained to lever-press for food pellets (45 mg) on a fixed-ratio 2 (FR2) schedule during 2-hour test sessions. Rats received IV injections of saline, GluR2-3A, or GluR2-3Y, in a counterbalanced order, 60 min prior to the test session. […] B. Rats were first trained to self-administer d-amphetamine (0.2 mg/infusion) via a jugular catheter on an FR2 schedule of reinforcement. Once responding in the 3 hour test sessions had stabilized, the rats were then trained on a Progressive Ratio Schedule in which successively more responses were required to obtain each successive reinforcement. […] Once stable Break point values were established, rats received IV injections of saline, GluR2-3A, or GluR2-3Y, in a counterbalanced order, 60 min prior to the test session.

[3] = Dose tolerance to serial doses, vital parameters monitored; assay type: in vivo, Sprague-Dawley rats
Protocol: FIG. 15. Dose tolerance curve to serial doses of Tat-GluR2-3Y. Two adult male Sprague-Dawley rats were given serial doses of Tat-GluR2-3Y and the basic vital parameters were monitored.
In order to determine the maximum dose that could be administered without adverse reaction, two male Sprague Dawley rats were injected with serial doses of Tat-GluR2-3Y ranging from 0.5 nmoles/g to 30 nmoles/g and basic vital parameters were monitored. […] Assuming complete dispersion of the peptide in the animal, this dose corresponds roughly to a concentration of 3 μM.

Sprague-Dawley rats = test: Transient focal ischemia model (MCA occlusion), TUNEL staining and neurological exam; assay type: in vivo, rat; settings: 10 min prior to MCA occlusion; 3 nmoles/g
Protocol: The procedure was performed essentially as described previously (70). Briefly, adult male Sprague-Dawley rats between 280 and 320 g (20 h fasted weight) were anesthetized with an inhaled mixture of 4% isofluorane, in 30% oxygen balanced nitrous oxide, and maintained on 1.5% isofluorane. Bronchial secretions were minimized by administering 0.5 mg/kg of atropine intraperitoneally. […] The experimenter was blinded to the identity of the treatment groups for all surgeries and down-stream experiments. Under a dissection microscope, the common carotid artery (CCA), external carotid artery (ECA), and internal carotid artery (ICA) were exposed and dissected. […] Rectal temperature, and blood pressure measured with a tail cuff were measured before treatment, 15 min post injection, 50 min post injection, and 15 min post MCA occlusion. The plasma pH, O2, and CO2 were measured with a Rapidlab™ 348 blood gas analyzer (Bayer Diagnostics) in some animals to ensure that the gas flow rates used were appropriate and yielded reproducible blood gases. […]
At day 1 post MCAo rats were anesthetized with 1.5 mL of 25% urethane and were perfused with 100 mL of 0.9% saline followed by 120 mLs of 4% paraformaldehyde in PBS. […] The slices were scored for number of cells that stained positive for TMR-TUNEL per field of view at 10× magnification. […]

| Compound | AMPAR surface expression (AMPAR) | side effects (rats [1]) | Break Point measures for drug-reward (rats [2]) | total number of responses for food reward (rats [2]) | behaviour after revival from the dose response curve ([3]; both animals) | dose up to which the drug was tolerated ([3]; serial doses 0.5 to 30 nmoles/g, above: large decline in blood pressure, increase in breathing rate) | doses evoking little response in the vital parameters monitored ([3]; serial doses, anesthetized rats) | mean arterial blood pressure (MABP) versus saline (Sprague-Dawley rats) |
| --- | --- | --- | --- | --- | --- | --- | --- | --- |
| CN[C@H](CC(=O)O)C(=O)O [NMDA, N-methyl-D-aspartate] | 55% |  |  |  |  |  |  |  |
| YGRKKRRQRRRYKEGYNVYGIE [Tat-GluR2-3Y, YGRKKRRQRRR-YKEGYNVYGIE] |  | without any notable side effects | no significant differences in the Break Point measures for drug-reward | no significant differences in total number of responses for food reward | showed no signs of mental depression or other behavioural changes | ~12 nmol/g | up to 6 nmoles/g | significantly lower mean arterial blood pressure |
